Data as given in ChEMBL document CHEMBL4627293, “Synthesis and in vitro activity of asymmetric indole-based bisamidine compounds against Gram-positive and Gram-negative pathogens” (2020).
≈ marks a conversion by molar mass, not a printed value.

Experiments:
Format in all cases: functional
Klebsiella pneumoniae [1] = test: Antimicrobial activity against ESBL-producing Klebsiella pneumoniae ATCC 700603
Proteus vulgaris = test: Antimicrobial activity against Proteus vulgaris ATCC 29905
Enterococcus faecalis [2] = test: Antimicrobial activity against Vancomycin-sensitive Enterococcus faecalis ATCC 29212
Providencia rettgeri = test: Antimicrobial activity against Providencia rettgeri ATCC 31052
Staphylococcus aureus [3] = test: Antimicrobial activity against methicillin-sensitive Staphylococcus aureus ATCC 29213
Enterococcus faecalis [4] = test: Antimicrobial activity against Vancomycin-resistant Enterococcus faecalis ATCC 51299
Staphylococcus aureus [5] = test: Antimicrobial activity against methicillin- resistant Staphylococcus aureus ATCC 33591
Klebsiella aerogenes = test: Antimicrobial activity against Enterobacter aerogenes ATCC 45102
Escherichia coli [6] = test: Antimicrobial activity against Escherichia coli ATCC 25922
Klebsiella pneumoniae [7] = test: Antimicrobial activity against NDM-1 producing Klebsiella pneumoniae ATCC BAA-2146
Pseudomonas aeruginosa [8] = test: Antimicrobial activity against Pseudomonas aeruginosa ATCC 27853
Citrobacter freundii [9] = test: Antimicrobial activity against Citrobacter freundii ATCC 43864
[10] = system: Staphylococcus epidermidis; test: Antimicrobial activity against methicillin-susceptible Staphylococcus epidermidis ATCC 12228
[11] = system: Acinetobacter calcoaceticus; test: Antimicrobial activity against Acinetobacter calcoaceticus ATCC 19606
Enterococcus faecium = test: Antimicrobial activity against vancomycin-resistant Enterococcus faecium ATCC 700221
Klebsiella pneumoniae [12] = test: Antimicrobial activity against Klebsiella pneumoniae 7
Pseudomonas aeruginosa [13] = test: Potency index, ratio of MIC for 2-[4-[4-[6-(N,N-dimethylcarbamimidoyl)-1H-indol-2-yl]phenoxy]phenyl]-N,N-dimethyl-1H-indole-6-carboxamidine to MIC for test compound against Pseudomonas aeruginosa ATCC 27853
Klebsiella pneumoniae [14] = test: Potency index, ratio of MIC for 2-[4-[4-[6-(N,N-dimethylcarbamimidoyl)-1H-indol-2-yl]phenoxy]phenyl]-N,N-dimethyl-1H-indole-6-carboxamidine to MIC for test compound against ESBL-producing Klebsiella pneumoniae ATCC 700603
Klebsiella pneumoniae [15] = test: Potency index, ratio of MIC for 2-[4-[4-[6-(N,N-dimethylcarbamimidoyl)-1H-indol-2-yl]phenoxy]phenyl]-N,N-dimethyl-1H-indole-6-carboxamidine to MIC for test compound against NDM-1 producing Klebsiella pneumoniae ATCC BAA-2146
Escherichia coli [16] = test: Potency index, ratio of MIC for 2-[4-[4-[6-(N,N-dimethylcarbamimidoyl)-1H-indol-2-yl]phenoxy]phenyl]-N,N-dimethyl-1H-indole-6-carboxamidine to MIC for test compound against Escherichia coli ATCC 25922
Klebsiella pneumoniae [17] = test: Potency index, ratio of MIC for 2-[4-[4-[6-(N,N-dimethylcarbamimidoyl)-1H-indol-2-yl]phenoxy]phenyl]-N,N-dimethyl-1H-indole-6-carboxamidine to MIC for test compound against Klebsiella pneumoniae 7
Citrobacter freundii [18] = test: Potency index, ratio of MIC for 2-[4-[4-[6-(N,N-dimethylcarbamimidoyl)-1H-indol-2-yl]phenoxy]phenyl]-N,N-dimethyl-1H-indole-6-carboxamidine to MIC for test compound against Citrobacter freundii ATCC 43864

| SMILES | MIC (Klebsiella pneumoniae [1]) | MIC (Proteus vulgaris) | MIC (Enterococcus faecalis [2]) | MIC (Providencia rettgeri) | MIC (Staphylococcus aureus [3]) | MIC (Enterococcus faecalis [4]) | MIC (Staphylococcus aureus [5]) | MIC (Klebsiella aerogenes) | MIC (Escherichia coli [6]) | MIC (Klebsiella pneumoniae [7]) | MIC (Pseudomonas aeruginosa [8]) | MIC (Citrobacter freundii [9]) | MIC [10] | MIC [11] | MIC (Enterococcus faecium) | MIC (Klebsiella pneumoniae [12]) | further results |
| --- | --- | --- | --- | --- | --- | --- | --- | --- | --- | --- | --- | --- | --- | --- | --- | --- | --- |
| C/N=C(\NC)c1ccc2cc(-c3ccc(Oc4ccc(-c5cc6ccc(C(=N)NC)cc6[nH]5)cc4)cc3)[nH]c2c1 | 64 µg/mL (≈ 122 µM) | 128 µg/mL (≈ 243 µM) | 1 µg/mL (≈ 1.9 µM) | 128 µg/mL (≈ 243 µM) | 0.5 µg/mL (≈ 0.949 µM) | 0.25 µg/mL (≈ 0.475 µM) | 0.25 µg/mL (≈ 0.475 µM) | 64 µg/mL (≈ 122 µM) | 16 µg/mL (≈ 30.4 µM) | 32 µg/mL (≈ 60.8 µM) | 64 µg/mL (≈ 122 µM) | 128 µg/mL (≈ 243 µM) |  |  |  |  |  |
| C/N=C(\NC)c1ccc2cc(-c3ccc(Oc4ccc(-c5cc6ccc(/C(=N\C)NC)cc6[nH]5)cc4)cc3)[nH]c2c1 | > 128 µg/mL | > 128 µg/mL | 8 µg/mL (≈ 14.8 µM) | > 128 µg/mL | 8 µg/mL (≈ 14.8 µM) | 16 µg/mL (≈ 29.6 µM) | 8 µg/mL (≈ 14.8 µM) | > 128 µg/mL | 64 µg/mL (≈ 118 µM) | 128 µg/mL (≈ 237 µM) | > 128 µg/mL | > 128 µg/mL |  |  |  |  |  |
| C[C@H]1COc2c(N3CCN(C)CC3)c(F)cc3c(=O)c(C(=O)O)cn1c23.C[C@H]1COc2c(N3CCN(C)CC3)c(F)cc3c(=O)c(C(=O)O)cn1c23.O [LEVOFLOXACIN] | 2 µg/mL | 0.125 µg/mL | 1 µg/mL | 0.125 µg/mL | 0.25 µg/mL | 1 µg/mL | 0.25 µg/mL | 0.25 µg/mL |  | > 128 µg/mL |  | 0.03 µg/mL | 0.25 µg/mL | 0.25 µg/mL | 32 µg/mL | 16 µg/mL |  |
| CNC(=N)c1ccc2cc(-c3ccc(Oc4ccc(-c5cc6ccc(C(=N)NC)cc6[nH]5)cc4)cc3)[nH]c2c1 | > 128 µg/mL | > 128 µg/mL | 1 µg/mL (≈ 1.95 µM) | > 128 µg/mL | 1 µg/mL (≈ 1.95 µM) | 1 µg/mL (≈ 1.95 µM) | 1 µg/mL (≈ 1.95 µM) | > 128 µg/mL | 128 µg/mL (≈ 250 µM) | > 128 µg/mL | > 128 µg/mL | > 128 µg/mL |  |  |  |  |  |
| CN(C)C(=N)c1ccc2cc(-c3ccc(Oc4ccc(-c5cc6ccc(C(=N)N(C)C)cc6[nH]5)nc4)cc3)[nH]c2c1 | 4 µg/mL (≈ 7.38 µM) | 4 µg/mL (≈ 7.38 µM) | 0.5 µg/mL (≈ 0.923 µM) | 4 µg/mL (≈ 7.38 µM) | 0.125 µg/mL (≈ 0.231 µM) | 0.5 µg/mL (≈ 0.923 µM) | 0.125 µg/mL (≈ 0.231 µM) |  | 1 µg/mL (≈ 1.85 µM) | 2 µg/mL (≈ 3.69 µM) | 32 µg/mL (≈ 59.1 µM) | 2 µg/mL (≈ 3.69 µM) | 0.25 µg/mL (≈ 0.462 µM) | 64 µg/mL (≈ 118 µM) | 1 µg/mL (≈ 1.85 µM) | 2 µg/mL (≈ 3.69 µM) | Ratio (Pseudomonas aeruginosa [13]): 4; Ratio (Klebsiella pneumoniae [14]): 4; Ratio (Klebsiella pneumoniae [15]): 4; Ratio (Escherichia coli [16]): 4; Ratio (Klebsiella pneumoniae [17]): 4; Ratio (Citrobacter freundii [18]): 4 |
| CC(C)NC(=N)c1ccc2cc(-c3ccc(Oc4ccc(-c5cc6ccc(C(=N)NC(C)C)cc6[nH]5)c(C(F)(F)F)c4)cn3)[nH]c2c1 | 16 µg/mL (≈ 25.1 µM) | 16 µg/mL (≈ 25.1 µM) | 0.5 µg/mL (≈ 0.784 µM) | 32 µg/mL (≈ 50.2 µM) | 0.5 µg/mL (≈ 0.784 µM) | 0.5 µg/mL (≈ 0.784 µM) | 0.5 µg/mL (≈ 0.784 µM) |  | 8 µg/mL (≈ 12.5 µM) | 16 µg/mL (≈ 25.1 µM) | 32 µg/mL (≈ 50.2 µM) | 8 µg/mL (≈ 12.5 µM) | 0.5 µg/mL (≈ 0.784 µM) | 32 µg/mL (≈ 50.2 µM) | 0.5 µg/mL (≈ 0.784 µM) | 16 µg/mL (≈ 25.1 µM) |  |
| CNC(=N)c1ccc2cc(-c3ccc(Oc4ccc(-c5cc6ccc(C(=N)NC)cc6[nH]5)nc4)cc3)[nH]c2c1 | 64 µg/mL (≈ 125 µM) | 128 µg/mL (≈ 249 µM) | 2 µg/mL (≈ 3.89 µM) | 128 µg/mL (≈ 249 µM) | 2 µg/mL (≈ 3.89 µM) | 2 µg/mL (≈ 3.89 µM) | 2 µg/mL (≈ 3.89 µM) |  | 16 µg/mL (≈ 31.2 µM) | 64 µg/mL (≈ 125 µM) | 64 µg/mL (≈ 125 µM) | 16 µg/mL (≈ 31.2 µM) | 0.25 µg/mL (≈ 0.487 µM) | > 128 µg/mL | 1 µg/mL (≈ 1.95 µM) | 64 µg/mL (≈ 125 µM) |  |
| CNC(=N)c1ccc2cc(-c3ccc(Oc4ccc(-c5cc6ccc(C(=N)NC)cc6[nH]5)c(C(F)(F)F)c4)cn3)[nH]c2c1 | 32 µg/mL (≈ 55 µM) | 64 µg/mL (≈ 110 µM) | 1 µg/mL (≈ 1.72 µM) | 64 µg/mL (≈ 110 µM) | 0.5 µg/mL (≈ 0.86 µM) | 1 µg/mL (≈ 1.72 µM) | 0.5 µg/mL (≈ 0.86 µM) |  | 8 µg/mL (≈ 13.8 µM) | 16 µg/mL (≈ 27.5 µM) | 64 µg/mL (≈ 110 µM) | 16 µg/mL (≈ 27.5 µM) | 0.25 µg/mL (≈ 0.43 µM) | 64 µg/mL (≈ 110 µM) | 0.5 µg/mL (≈ 0.86 µM) | 16 µg/mL (≈ 27.5 µM) |  |
| CNC(=N)c1ccc2cc(-c3ccc(Oc4ccc(-c5cc6ccc(C(=N)NC)cc6[nH]5)c(OC)c4)cc3)[nH]c2c1 | 128 µg/mL (≈ 236 µM) | 128 µg/mL (≈ 236 µM) | 0.5 µg/mL (≈ 0.921 µM) | > 128 µg/mL | 1 µg/mL (≈ 1.84 µM) | 0.5 µg/mL (≈ 0.921 µM) | 1 µg/mL (≈ 1.84 µM) |  | 16 µg/mL (≈ 29.5 µM) | 32 µg/mL (≈ 59 µM) | > 128 µg/mL | 32 µg/mL (≈ 59 µM) | 0.25 µg/mL (≈ 0.461 µM) | > 128 µg/mL | 1 µg/mL (≈ 1.84 µM) | 64 µg/mL (≈ 118 µM) |  |
| CNC(=N)c1ccc2cc(-c3ccc(Oc4ccc(-c5cc6ccc(C(=N)NC)cc6[nH]5)cn4)cc3)[nH]c2c1 | > 128 µg/mL | > 128 µg/mL | 1 µg/mL (≈ 1.95 µM) | > 128 µg/mL | 0.25 µg/mL (≈ 0.487 µM) | 1 µg/mL (≈ 1.95 µM) | 0.25 µg/mL (≈ 0.487 µM) |  | 16 µg/mL (≈ 31.2 µM) | > 128 µg/mL | > 128 µg/mL | 128 µg/mL (≈ 249 µM) | 0.125 µg/mL (≈ 0.243 µM) | 128 µg/mL (≈ 249 µM) | 0.25 µg/mL (≈ 0.487 µM) | 128 µg/mL (≈ 249 µM) |  |
| CN(C)C(=N)c1ccc2cc(-c3ccc(Oc4ccc(-c5cc6ccc(C(=N)N(C)C)cc6[nH]5)cc4)cc3)[nH]c2c1 | 8 µg/mL (≈ 14.8 µM) | 8 µg/mL (≈ 14.8 µM) | 0.5 µg/mL (≈ 0.925 µM) | 8 µg/mL (≈ 14.8 µM) | 0.25 µg/mL (≈ 0.462 µM) | 1 µg/mL (≈ 1.85 µM) | 0.25 µg/mL (≈ 0.462 µM) |  | 4 µg/mL (≈ 7.4 µM) | 8 µg/mL (≈ 14.8 µM) | 128 µg/mL (≈ 237 µM) | 8 µg/mL (≈ 14.8 µM) | 0.125 µg/mL (≈ 0.231 µM) | > 128 µg/mL | 2 µg/mL (≈ 3.7 µM) | 8 µg/mL (≈ 14.8 µM) |  |
| CN(C)C(=N)c1ccc2cc(-c3ccc(Oc4ccc(-c5cc6ccc(C(=N)N(C)C)cc6[nH]5)c(C(F)(F)F)c4)cn3)[nH]c2c1 | 32 µg/mL (≈ 52.5 µM) | 32 µg/mL (≈ 52.5 µM) | 2 µg/mL (≈ 3.28 µM) | 128 µg/mL (≈ 210 µM) | 1 µg/mL (≈ 1.64 µM) | 2 µg/mL (≈ 3.28 µM) | 0.5 µg/mL (≈ 0.82 µM) |  | 8 µg/mL (≈ 13.1 µM) | 32 µg/mL (≈ 52.5 µM) | > 128 µg/mL | 16 µg/mL (≈ 26.2 µM) | 0.5 µg/mL (≈ 0.82 µM) | > 128 µg/mL | 1 µg/mL (≈ 1.64 µM) | 32 µg/mL (≈ 52.5 µM) |  |
